Patent publication US8148385B2, “Substituted [1,2,3] triazolo[4,5-d]pyrimidine derivatives as ADP P2Y12 receptor antagonists” (Janssen Pharmaceutica N.V., priority 2006, dated 2012)
pIC50: −log10 of the molar value.

Legend:
washed platelets = assay: In vitro platelet aggregation; format: cell-based; details: Homo sapiens, washed platelets from healthy volunteers, agonist (ADP) at 60-70% aggregation, % inhibition of control ADP response
Experimental: Platelet aggregation studies were performed according to a published method (Bednar, B., Condra, C., Gould, R. J., and Connolly, T. M., Throm. Res., 77:453-463 (1995). Platelet-rich plasma (PRP) concentrates prepared from healthy volunteers who were aspirin free for at least 7 days by venipuncture using ACD-A as anticoagulant was purchased from Biological Specialties, Inc. (Colmar, Pa.). PRP was centrifuged at 730 g for 15 min. The platelet pellet was washed twice in CGS buffer (13 mM sodium citrate, 30 mM glucose, 120 mM NaCl, pH 6.5) containing 1 μ/ml apyrase (grade V, Sigma-Aldrich, St. Louis, Mo.), 1 mM EGTA, and resuspended in Tyrode's buffer (140 mM NaCl, 2.7 mM KCl, 12 mM NaHCO3, 0.76 mM Na2HPO4, 5.5 mM dextrose, 5.0 mM Hepes, 0.2% BSA, pH 7.4). The platelets were diluted to 3×10^8 platelets/ml and kept >45 min at 37° C. before use. 105 μl of washed platelets, 2 mM CaCl2 and […] of fibrinogen were added to a 96-well microliter plate.
Platelet aggregation was initiated by the addition of serial concentrations of ADP (BioData Corp. Horsham, Pa.). Buffer was added to one set of control wells. The assay plate was stirred constantly and intermittently placed in a microplate reader (Softmax, Molecular Devices, Menlo Park, Calif.) to read optical density (650 nm) at 0 and 5 minutes after the addition of the compound solutions. Aggregation was calculated as the decrease in optical density between the time 0- and 5-min measurements and expressed as % of aggregation. For the inhibition assay, platelet aggregation was conducted as described above except for compound additions. Test compounds were prepared in 100% DMSO and stored.
On the day of the assay, test compounds were diluted in the buffer containing 3% of DMSO as a 10× working solution. 15 μl of compound solutions were added to 105 μl of platelets 5 min prior to the addition of CaCl2 and fibrinogen.

ADP P2Y12 = target: T1, ADP P2Y12 (Homo sapiens, UniProt Q9H244); assay: FLIPR calcium assay transducing Gi-coupled signaling to the Gq pathway (inhibition of calcium mobilization); format: cell-based; details: HEK 293 cells co-transfected with P2Y12 and Gqi5, ADP at EC60-70 dose
T1 construct: expressed in transfected cells
Text: A FLIPR Calcium Assay Transducing Gi-Coupled Signaling to the Gq Pathway
The ADP P2Y12 subtype is a Gi coupled GPCR, which mediates inhibition of adenylate cyclase leading to decreased cAMP while Gq proteins primarily activate phospholipase C, which stimulates inositol-1,4,5-triphosphate (IP3) formation and a subsequent increase in intracellular Ca^2+ concentration, which can be easily measured by FLIPR. Prior to the development of a method to convert a Gi coupled GPCR signaling to a Gq coupled GPCR signaling, a significant barrier existed for the functional testing and screening of Gi coupled GPCRs. One popular method, GTPγS migration, is slow, produces a small signal and generates radioactive waste. The discovery that a small switch in the amino acid sequence in the Gi protein could convert it to a protein mediating a Gq coupled response has led to the development of robust, high throughput assays for this valuable receptor subtype.
The FLIPR-based HTS assay transducing the Gi signaling to the Gq pathway is described below.
pcDNA3hygroP2Y12 containing a hygromycin resistance gene and pLEC1-Gqi5-HA containing a neomycin resistance gene (licensed from Molecular Devices, Sunnyvale, Calif.) were co-transfected into Human embryonic kidney (HEK) 293 cells with SuperFect (Qiagen, Valencia, Calif.). Cell clones were selected in the presence of 600 μg/ml hygromycin B (Life Technologies, Carlsbad, Calif.) and 1 mg/ml of G418 (Mediatech, Herndon, Va.). Drug resistant colonies were picked and screened by FLIPR and the gene expression was further confirmed by RT-PCR. Positive clones were maintained in growth medium (DMEM supplemented with 10% FBS, 1×p/s) containing 400 μg/ml of G418 and 200 μg/ml of hygromycin.
The day before the assay, cells are seeded in clear, flat-bottom black-wall, tissue culture treated polystyrene 96- or 384-well plates and incubated at 37° C., 5% CO2. 50 μl of complete dye loading solution (FLIPR Calcium Assay Kit, Molecular Devices) was added to each well containing 100 μl of culture media. The cells were incubated for at least 30 min at 37° C., in 5% CO2 before initiating the assay on the FLIPR. The agonist effect of ADP was tested and EC50 was determined prior to compound testing. The EC60-70 dose was used.
The antagonist compounds were prepared at 4× and the agonists were diluted at 5× the concentration desired in the test wells, and then aliquoted into the sample plates. The sample plates and the cell plate were placed in the FLIPR assay chamber. A first addition (50 μl) was made at the start of reading and a second addition (50 μl) was made after 5 min of reading. Raw fluorescence data was exported for each well and tabulated versus time within an ASCII file. Data was then imported into Excel and the peak response over the basal level was determined. The percent inhibition for each compound was calculated by the change in fluorescent density as a % inhibition of the control ADP response to obtain an IC50, as shown in Table 1 (wherein N/A means Not Applicable).

P2Y12 receptor = target: T2, P2Y12 receptor (Homo sapiens, UniProt Q9H244); assay: Whole cell receptor binding assay for 2-MeS[3H]-ADP; details: whole HEK 293 cells transfected with P2Y12; 2-MeS[3H]-ADP 3 nM; 30 min at 37° C.; read-out: Inhibition of Receptor Binding IC50
T2 construct: expressed in transfected cells
Experimental: A whole cell-binding assay for 2-MeS [^3H]-ADP (Custom synthesized by Amersham BioScience, Piscataway, N.J.) to the P2Y12 receptor was performed.
A P2Y12 cDNA containing hygromycin resistant gene was transfected in HEK 293 cells. A stable cell line was obtained by a cloning selection method. The cells were cultured in DMEM supplemented with 10% FBS and 1× of p/s.
On the day of the assay, the cells were harvested and resuspended in 0.25% BSA-DMEM and adjusted to a cell concentration of 1.6×10^6/ml. […] The reaction was then incubated for 30 min at 37° C. and stopped by adding cold DMEM. […] The plates were dyed in a 37° C. oven for 1-2 hours and 50 μl of MicroScint-20 (PerkinElmer) was added to each well. The radioactivity was measured using a TOPCOUNT beta counter (Packard).

T2 sequence (Q9H244 whole entry): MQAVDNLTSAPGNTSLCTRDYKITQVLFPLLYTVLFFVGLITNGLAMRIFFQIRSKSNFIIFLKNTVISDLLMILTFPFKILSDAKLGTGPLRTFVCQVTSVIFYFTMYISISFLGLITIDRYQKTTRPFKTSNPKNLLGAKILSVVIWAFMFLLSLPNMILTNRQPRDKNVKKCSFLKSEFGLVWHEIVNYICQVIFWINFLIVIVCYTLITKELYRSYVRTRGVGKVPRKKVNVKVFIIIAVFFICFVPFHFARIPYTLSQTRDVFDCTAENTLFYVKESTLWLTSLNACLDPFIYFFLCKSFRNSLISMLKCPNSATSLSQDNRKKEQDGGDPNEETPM
T1 sequence (Q9H244 whole entry): as above

Compound	pIC50 (washed platelets)	pIC50 (ADP P2Y12)	pIC50 (P2Y12 receptor)
CCCSc1nc(N[C@@H]2C[C@H]2c2ccccc2)c2nnn([C@@H]3C=C[C@H](O)[C@@H](O)[C@H]3O)c2n1 (mixture of isomers) [Cpd 5, (1S,2R,3S,6R)-6-{7-[(1RS,2SR)-2-phenyl-cyclopropylamino]-5-propylsulfanyl-[1,2,3]triazolo[4,5-d]pyrimidin-3-yl}-cyclohex-4-ene-1,2,3-triol]	5.30	6.13	5.68
CCCSc1nc(N[C@@H]2C[C@H]2c2ccccc2)c2nnn([C@@H]3C=C[C@H](OCC(=O)O)[C@@H](O)[C@H]3O)c2n1 (mixture of isomers) [Cpd 11, [(1S,4R,5S,6S)-5,6-dihydroxy-4-{7-[(1RS,2SR)-2-phenyl-cyclopropylamino]-5-propylsulfanyl-[1,2,3]triazolo[4,5-d]pyrimidin-3-yl}-cyclohex-2-enyloxy]-acetic acid]	5.54	5.66	5.83
CCCSc1nc(N[C@@H]2C[C@H]2c2ccccc2)c2nnn([C@@H]3CC[C@H](O)[C@@H](O)[C@H]3O)c2n1 (mixture of isomers) [Cpd 14, (1S,2R,3S,4R)-4-{7-[(1RS,2SR)-2-phenyl-cyclopropylamino]-5-propylsulfanyl-[1,2,3]triazolo[4,5-d]pyrimidin-3-yl}-cyclohexane-1,2,3-triol]	5.51	6.34	5.87
CCCSc1nc(N[C@@H]2C[C@H]2c2ccccc2)c2nnn([C@H]3[C@H](O)[C@H](O)[C@@H](O)[C@H](O)[C@@H]3O)c2n1 (racemic) [Cpd 9, (1R,2R,4S,5S)-6-{7-[(1RS,2SR)-phenyl-cyclopropylamino]-5-propylsulfanyl-[1,2,3]triazolo[4,5-d]pyrimidin-3-yl}-cyclohexane-1,2,3,4,5-pentaol]	4.82	5.53	5.30
CCCCNc1nc(SCCC)nc2c1nnn2[C@@H]1C=C[C@H](O)[C@@H](O)[C@H]1O [Cpd 1, (1S,2R,3S,6R)-6-(7-butylamino-5-propylsulfanyl-[1,2,3]triazolo[4,5-d]pyrimidin-3-yl)-cyclohex-4-ene-1,2,3-triol]	4.82	5.67	5.04
CCCSc1nc(NCC2CCCN2CC)c2nnn([C@@H]3CC[C@H](O)[C@@H](O)[C@H]3O)c2n1 (stereo partly drawn) [Cpd 21, (1S,2R,3S,4R)-4-{7-[(1-ethyl-pyrrolidin-2-ylmethyl)-amino]-5-propylsulfanyl-[1,2,3]triazolo[4,5-d]pyrimidin-3-yl}-cyclohexane-1,2,3-triol]	< 4.52	< 4.52	–
